Assay results: patent US20240108739A1, “OLIGOMERIC COMPOUNDS BINDING SPECIFICALLY TO PROTEOGLYCANS” (PHI PHARMA SA, priority 2020, published 2024)
Positions of bridges follow the written chain, without caps; N, C: chain ends. Non-standard residues stand in square brackets, D forms with d. Residues, ends and D or L forms follow the SMILES beside them. Chains are numbered I, II in the order given. ξ: configuration not given here. *: point of attachment. X2 = O=C(CCCCCN1C(=O)CC(*)C1=O)NNC(=O)CCCCC1SC[C@H]2NC(=O)N[C@@H]12; ξIle = CC[C@H](C)C(N)C(=O)O; Orn = NCCC[C@H](N)C(=O)O

Tests used:
Type in all cases: cell-based
[1] = tested on: CHO-pgsA-745 cells (GAG-deficient mutant); assay: Flow cytometry binding of biotinylated compounds to CHO cells (Example 3); conditions: 30 min at 4 °C, streptavidin-680RD fluorescence; FIG. 3B
Method: (§1) Cell lines in exponential growth phase were cultured in complete culture medium with 10% FBS and grown in 75 cm^2 cell culture flasks. On the day of the experiment, cells were harvested and transferred in V-bottom culture plates, washed with PBS 1× supplemented with BSA 3% and then incubated with (51-hS)2KC-Mal-Biotin, (51-hS)2KS-(51-hS)KC-Mal-Biotin, [(51-hS)2KS]2KK(Biotin) and VAR2-Biotin for 30 min at 4° C. in PBS 1× supplemented with BSA 3% (and eventually PEG600 2%) at various dilutions (serial dilutions).
After the incubation, cells were washed in PBS 1× supplemented with BSA 3%. For visualization, cells were incubated for 15 min at 4° C. with streptavidin coupled to 680RD fluorochrome. After the incubation, cells were washed in PBS 1× supplemented with 3% BSA and then incubated for at least 15 min at 4° C. with 4′,6-diamidino-2-phenylindole (DAPI) (Thermo Fisher Scientific) in order to exclude dead cells. Samples were directly applied to a flow cytometer. Data generated on the flow cytometer was analyzed using Flowjo™ 10.6.0.

[2] = tested on: HL-60 (leukemia) cells; assay: Flow cytometry binding to tumor cell lines (Example 5); conditions: FIG. 6
Method: as §1, with “Tumor cell” for “Cell”, “the compounds” for “(51-hS)2KC-Mal-Biotin, (51-hS)2KS-(51-hS)KC-Mal-Biotin, [(51-hS)2KS]2KK(Biotin) and VAR2-Biotin”, “and” for “(and eventually”, “2%” for “2%)”
(§2) After the incubation, cells were washed in PBS 1× supplemented with BSA 3%. For biotinylated compounds, cells are then incubated for 15 min at 4° C. with streptavidin coupled to 680RD fluorochrome.
(§3) After the incubation, cells were washed in PBS 1× supplemented with 3% BSA and then incubated for at least 15 min at 4° C. with DAPI (Thermo Fisher Scientific) in order to exclude dead cells and samples are directly applied to a flow cytometer. Data generated using the flow cytometer was analyzed using Flowjo™10.6.0 Fluorescence geometric mean (via the use of streptavidin-680RD) of samples was standardized by subtracting the fluorescence geometric mean of the negative control (no compound) and the addition of 1. Experimental design is outlined in Table 9.

[3] = tested on: U937 (lymphoma) cells; assay: as above; conditions: FIG. 6
Method: as §1, with “Tumor cell” for “Cell”, “the compounds” for “(51-hS)2KC-Mal-Biotin, (51-hS)2KS-(51-hS)KC-Mal-Biotin, [(51-hS)2KS]2KK(Biotin) and VAR2-Biotin”, “and” for “(and eventually”, “2%” for “2%)”
as §2, §3

SMILES: CC[C@H](C)C(NC(=O)[C@H](CCCNC(=N)N)NC(=O)[C@H](NC(=O)[C@H](Cc1ccccc1)NC(=O)[C@H](Cc1ccc(O)cc1)NC(=O)[C@H](CCCNC(=N)N)NC(C)=O)C(C)C)C(=O)N[C@@H](CCCN)C(=O)N[C@@H](Cc1ccc(O)cc1)C(=O)N[C@@H](CCCNC(=N)N)C(=O)N[C@H](Cc1c[nH]cn1)C(=O)N[C@@H](CO)C(=O)N[C@@H](CCCCNC(=O)[C@H](CO)NC(=O)[C@@H](Cc1c[nH]cn1)NC(=O)[C@H](CCCNC(=N)N)NC(=O)[C@H](Cc1ccc(O)cc1)NC(=O)[C@H](CCCN)NC(=O)[C@@H](NC(=O)[C@H](CCCNC(=N)N)NC(=O)[C@H](NC(=O)[C@H](Cc1ccccc1)NC(=O)[C@H](Cc1ccc(O)cc1)NC(=O)[C@H](CCCNC(=N)N)NC(C)=O)C(C)C)[C@@H](C)CC)C(=O)N[C@@H](CSC1CC(=O)N(CCCCCC(=O)NNC(=O)CCCCC2SC[C@H]3NC(=O)N[C@@H]23)C1=O)C(N)=O (stereo partly drawn) [(51-hS)2KC-Mal-Biotin] (I: Ac-RYF[dV]R[ξIle][Orn]YR[dH]SKC(X2)-NH2 / II: Ac-RYF[dV]RI[Orn]YR[dH]S; amide I:12-II:C)
- reduction of fluorescence on CHO-pgsA-745 as compared with fluorescence on CHO-K1 cells [1]: 4.6 fold
- reduction of binding on HL-60 cells as compared with (51-hS)2KS-(51-hS)KC-Mal-Biotin [2]: at least 10 ×
- reduction of binding on U937 cells as compared with (51-hS)2KS-(51-hS)KC-Mal-Biotin [3]: at least 10 ×
